Reference: PubChem BioAssay (NCI)
Several values for one entry are separate records, joined by “and”; a condition that tells them apart may be missing. Equal entries are not always repeated.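 A five-concentration, 48-hour dose response in 96-well plates underlies each endpoint, interpolated linearly between surrounding concentrations. The concentration for 50% growth inhibition is given as GI50. TGI denotes the concentration required for complete inhibition of growth.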

Key:
Assay in all cases: DTP human tumour cell line panel, 48 h
[1] = tested on: A549 NSCLC
[2] = tested on: TK-10 renal
[3] = tested on: EKVX NSCLC
[4] = tested on: NCI-H460 lung
[5] = tested on: K-562 leukemia
[6] = tested on: NCI-H226 lung
[7] = tested on: HL-60(TB) leukemia
[8] = tested on: SK-OV-3 ovarian
[9] = tested on: CAKI-1 renal
[10] = tested on: HOP-62 NSCLC

SMILES	TGI [1]	TGI [2]	TGI [3] [µM]	TGI [4]	TGI [5]	TGI [6]	TGI [7] [µM]	TGI [8] [µM]	TGI [9] [µM]	TGI [10]	GI50 [6] [µM]	GI50 [1] [µM]	GI50 [7] [µM]	GI50 [9] [µM]	GI50 [2] [µM]	GI50 [3] [µM]	GI50 [4] [µM]	GI50 [8]	GI50 [5]	GI50 [10] [µM]
Cn1nc(-c2ccccc2)c2c(/C=C/c3ccc(Cl)cc3)onc2c1=O	35.4 µM	> 100 µM	> 100	> 100 µM	> 100 µM	–	–	–	–	–	–	–	–	–	–	–	–	–	–	–
CCC(C)C(=O)O[C@H]1C(=O)O[C@@H]2C[C@H]3C(C)=CC(=O)[C@@H](O)[C@]3(C)[C@H]3[C@@H](O)[C@H](O)[C@@]4(C)OC[C@]32[C@@H]14 (stereo partly drawn)	10.7 µM	< 0.0389 µM	–	< 0.0185 µM	0.214 µM	< 0.0259 µM	< 0.01	0.58	–	–	–	–	–	–	–	–	–	–	–	–
Cc1occc1C(=S)Nc1ccc(Cl)c(C(=O)OCC(C)C)c1	42.4 µM	33.5 µM	31	44.9 µM	55.2 µM	30.4 µM	79.5	42.4	37.8	–	–	–	–	–	–	–	–	–	–	–
CC1NC(C(=O)O)Cc2cc(O)c(O)cc21 (stereo not drawn)	> 100 µM	> 100 µM	> 100	> 100 µM	–	> 100 µM	> 100	> 100	> 100	> 100 µM	–	–	–	–	–	–	–	–	–	–
Cc1cc2c(C(=O)NCC#N)cccc2n1-c1nc2c(c(NCc3ccccc3)n1)CCCC2	1.28 µM	0.976 µM	2.4	0.686 µM	> 100 µM	0.748 µM	> 100	2.78	> 100	–	0.293	0.312	0.311	0.666	0.331	0.329	0.261	0.431 µM	0.372 µM	–
Nc1c(C(=O)c2ccc(C#CCN3CCOCC3)cc2)cnn1-c1ccc(F)cc1	> 25 µM	> 25 µM	–	> 25 µM	> 25 µM	> 25 µM	> 25	> 25	> 25	> 25 µM	> 25	> 25	> 25	> 25	> 25	–	> 25	> 25 µM	> 25 µM	> 25
Cc1ccc(C(=O)C(c2nc3n(c2O)C(=N)N=N3)c2nc3n(c2O)C(=N)N=N3)cc1 (stereo not drawn)	> 100 µM	> 100 µM	> 100	> 100 µM	> 100 µM	> 100 µM	> 100	> 100	> 100	–	–	–	–	–	–	–	–	–	–	–
COc1ccc(C2=NN(C=O)C(c3ccc(OS(=O)(=O)c4ccc(C)cc4)c(OC)c3)C2)cc1 (stereo not drawn)	> 100 µM	> 100 µM	–	> 100 µM	> 100 µM	> 100 µM	> 100	> 100	> 100	74 µM	8.81	9.42	2.56	5.35	> 100	–	8.86	8.88 µM	2.45 µM	9.47
Cc1cncc(-c2nc(NCCc3c[nH]c4ccccc34)c3ncn(C(C)C)c3n2)c1	> 100 µM	52.8 µM	35.5	13.3 µM	–	20.5 µM	–	35.7	30.4	22.9 µM	4.69	4.28	–	4.12	10.3	6.77	3.33	5.76 µM	–	6.01
Cc1cc(O[C@@H]2O[C@@H](C)[C@H](O)[C@@H](O)[C@H]2O)c2c3c(c(O[C@@H]4O[C@@H](C)[C@H](O)[C@@H](O)[C@H]4O)cc2c1)C(=O)c1c(O)cccc1C3=O	> 30 µM	–	> 30	> 30 µM	> 30 µM	> 30 µM	> 30	> 30	–	> 30 µM	> 30	> 30	> 30	–	–	> 30	> 30	> 30 µM	> 30 µM	> 30
C=C1C(=O)O[C@@H]2C[C@@H]1CC[C@]1(C)O[C@H]1CC/C(C)=C/CC[C@@]2(C)O	83.7 µM	37.8 µM	80.2	40.2 µM	> 100 µM	59.2 µM	–	64	37	47.7 µM	21.7	25.3	–	18.7	15.4	23.4	15.7	25.5 µM	34.3 µM	24.2
CCCCOC(=O)/C=C\C(=O)NC(N)=O	> 100 µM	–	56.9	> 100 µM	> 100 µM	49.2 µM	49.9	> 100	9.23	> 100 µM	20	34.3	22.8	2.53	–	23.1	31.9	44.9 µM	31.3 µM	32.5
O=C(CC(=O)N1N=C(n2ccc3ccccc32)CC1c1ccccc1)Nc1ccc(Cl)cc1 (stereo not drawn)	> 100 µM	> 100 µM	> 100	> 100 µM	> 100 µM	–	> 100	> 100	–	> 100 µM	–	–	–	–	–	–	–	–	–	–
Cc1ccc(/C=C(/C#N)n2nnc3ncccc32)cc1	77.5 µM	9.22 µM	26.9	7.76 µM	> 100 µM	28 µM	9.92	> 100	–	12.9 µM	4.46	2.58	2.99	–	2.39	2.88	2.69	3.9 µM	0.545 µM	3.17
CC12CC/C(=N/NC(N)=O)C3C1CCCC32	> 100 µM	> 100 µM	–	> 100 µM	> 100 µM	> 100 µM	> 100	> 100	> 100	> 100 µM	–	–	–	–	–	–	–	–	–	–
CCC1(OC(=O)CNC)C(=O)OCc2c1cc1n(c2=O)Cc2cc3ccccc3nc2-1 (stereo not drawn)	0.958 µM	30.4 µM	17	0.399 µM	> 60.1 µM	0.0641 µM	0.159	0.152	–	< 0.0143 µM	–	–	–	–	–	–	–	–	–	–
CCOC(=O)NC(=O)c1cn(CCCCCCCCCCC(=O)NCCCN2CCN(CCCNC(=O)CCCCCCCCCCn3cc(C(=O)NC(=O)OCC)c(=O)[nH]c3=O)CC2)c(=O)[nH]c1=O	> 100 µM	> 100 µM	–	> 100 µM	> 100 µM	–	> 100	> 100	> 10	> 10 µM	–	–	–	–	–	–	–	–	–	–

SMILES	TGI [1]	TGI [2]	TGI [3] [µM]	TGI [4]	TGI [5]	TGI [6]	TGI [7] [µM]	TGI [8] [µM]	TGI [9] [µM]	TGI [10]	GI50 [6] [µM]	GI50 [1] [µM]	GI50 [7] [µM]	GI50 [9] [µM]	GI50 [2] [µM]	GI50 [3] [µM]	GI50 [4] [µM]	GI50 [8]	GI50 [5]	GI50 [10] [µM]
Cc1ccc(NC(=O)CCc2nnc3s/c(=C\c4cccc([N+](=O)[O-])c4)c(=O)n23)cc1	> 100 µM	> 100 µM	> 100	> 100 µM	> 100 µM	> 100 µM	–	> 100	> 100	> 100 µM	–	–	–	–	–	–	–	–	–	–
c1ccc(COCC[P+](c2ccccc2)(c2ccccc2)c2ccccc2)cc1	10.1 µM	–	–	10.7 µM	16 µM	29.8 µM	1.39	9.93	23.1	32.4 µM	1.22	0.584	0.29	5.4	–	–	1.5	2.33 µM	0.383 µM	3.59
Cc1cc(Cl)ccc1NC(=O)CC1SC(=NC(=O)c2ccccc2Cl)NC1=O (stereo not drawn)	> 100 µM	–	> 100	> 100 µM	47.6 µM	75 µM	4.72	–	33.9	–	–	–	–	–	–	–	–	–	–	–
CS(=O)(=O)O[C@H]1C(=O)N(c2cc3c4ccccc4ccc3c3ccccc23)[C@@H]1c1ccccn1	> 100 µM	> 100 µM	–	> 100 µM	–	> 100 µM	> 100	> 100	> 100	> 100 µM	5.36	0.665	0.309	0.413	0.996	–	2.39	0.627 µM	–	0.612
COC1=CC(c2ccc[nH]2)=N/C1=C\c1[nH]c(C)c(C(=O)Oc2ccccc2)c1C	2.01 µM	2.55 µM	2.97	1.4 µM	> 100 µM	1.96 µM	–	7.35	–	3.86 µM	0.438	0.344	–	0.0679	0.336	0.164	0.077	1.68 µM	0.292 µM	0.71
COc1cccc(CCNC(=O)CC(c2ccccc2)(c2ccccc2)c2ccccc2)c1	96.5 µM	82.2 µM	> 100	> 100 µM	> 100 µM	–	> 100	> 100	50.9	> 100 µM	–	4.11	17.5	3.16	21.9	22.7	10.5	> 100 µM	6.03 µM	59.4
O=C1c2cccc([N+](=O)[O-])c2C(=O)c2nccnc21	3.37 µM	3.85 µM	3.92	2.79 µM	4.17 µM	4.06 µM	4.81	–	16.4	–	–	–	–	–	–	–	–	–	–	–
CC(=O)NNc1nc(C)c(C(/C=C/c2ccc(Cl)cc2)=N\N=C(N)N)s1	> 100 µM	> 100 µM	–	> 100 µM	> 100 µM	> 100 µM	> 100	> 100	> 100	> 100 µM	–	–	–	–	–	–	–	–	–	–
C/C=C(\C)c1cc(=O)c2c(C)cc3c(c2o1)C(OC)(OC(C)=O)c1c(O)c(C2CC(C)(N(C)C)C(OC(C)=O)C(C)O2)cc(C2CC(N(C)C)C(OC(C)=O)C(C)O2)c1C3=O (stereo not drawn)	> 100 µM	> 100 µM	11.6	–	–	5.03 µM	–	8.59	9.39	> 100 µM	–	–	–	–	–	–	–	–	–	–
O=C1Nc2ccc(O)cc2/C1=C\c1ccncc1	82.8 µM	39.8 µM	56	42.9 µM	56.2 µM	–	> 100	> 100	54.2	56.4 µM	–	26.2	36	17.9	18.6	10.6	12.7	58.9 µM	17.7 µM	23.9
COC(=O)C1CC(c2ccc(Cl)cc2)=NO1 (stereo not drawn)	> 100 µM	> 100 µM	> 100	> 100 µM	> 100 µM	> 100 µM	> 100	> 100	–	> 100 µM	–	–	–	–	–	–	–	–	–	–
CCSc1nc(NC(C)c2ccccc2)c2cnn(CO)c2n1 (stereo not drawn)	> 100 µM	> 100 µM	–	> 100 µM	> 100 µM	> 100 µM	> 100	> 100	56.1	> 100 µM	47	> 100	> 100	0.135	47.7	–	32.8	45.8 µM	29.2 µM	> 100
Cc1ccc2nc(Sc3c([N+](=O)[O-])ncn3C)[nH]c2c1	> 100 µM	> 100 µM	63.9	> 100 µM	–	45 µM	–	> 100	27.5	> 100 µM	–	–	–	–	–	–	–	–	–	–
COC(=O)[C@H](Cc1ccccc1)NNC(=O)c1csc([C@@H](C[C@H](C(C)C)N(C)C(=O)[C@@H](NC(=O)[C@H]2CCCCN2C)C2CC2)OC(C)=O)n1	25 µM and > 100 µM	25 µM and > 100 µM	> 100	25 µM and > 100 µM	25 µM and > 100 µM	25 µM and > 100 µM	0.00596	> 100	–	25 µM and > 100 µM	–	–	0.0013	–	–	–	–	0.48 µM and 1 µM	0.00302 µM and 0.0025 µM and 0.0243 µM	–
COc1ccc(NC(=S)C#N)cc1	> 100 µM	> 100 µM	–	–	> 100 µM	> 100 µM	> 100	> 100	> 100	> 100 µM	–	–	–	–	–	–	–	–	–	–
COc1cccc(N2C(=O)/C(=C/c3ccc(N(CCC#N)CCC#N)cc3)N=C2c2cc([N+](=O)[O-])ccc2Cl)c1	–	–	–	> 100 µM	> 100 µM	> 100 µM	> 100	> 100	> 100	> 100 µM	–	–	–	–	–	–	–	–	–	–
CCNC(=O)Oc1ccc(/C(=C(\C)c2ccc(Cl)cc2)c2ccc(OCCN(CC)CC)cc2)cc1	18.4 µM	31.8 µM	23.6	4.16 µM	5.37 µM	39.5 µM	4.37	22.8	–	16.4 µM	17.2	5.63	1.79	–	17	10.3	2.09	10.7 µM	2.18 µM	4.35
